Test results: PubChem BioAssay (NCI)
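Five compound concentrations were applied to cells in 96-well plates for 48 hours; endpoints were derived by simple linear interpolation of the resulting dose-response curve. GI50 is the concentration that inhibits growth by half. TGI denotes the concentration required for complete inhibition of growth.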

What was measured:
Experiment in all cases: NCI-60 cell line screen, 48 h
[1] = system: SK-OV-3 ovarian
[2] = system: COLO 205 colon
[3] = system: HS 578T breast
[4] = system: A498 renal
[5] = system: HCT-15 colon
[6] = system: MCF7 breast
[7] = system: SK-MEL-28 melanoma
[8] = system: HOP-62 NSCLC
[9] = system: NCI-H522 lung
[10] = system: MDA-MB-435
[11] = system: HOP-92 NSCLC
[12] = system: ACHN renal
[13] = system: NCI-H23 lung
[14] = system: MOLT-4 leukemia
[15] = system: NCI/ADR-RES ovarian
[16] = system: HT29 colon
[17] = system: SR leukemia
[18] = system: SN12C renal
[19] = system: MALME-3M melanoma
[20] = system: HCT-116 colon
[21] = system: M14 melanoma
[22] = system: SK-MEL-2 melanoma
[23] = system: UO-31 renal
[24] = system: OVCAR-3 ovarian
[25] = system: HL-60(TB) leukemia
[26] = system: OVCAR-4 ovarian
[27] = system: SNB-75 CNS
[28] = system: T-47D breast
[29] = system: NCI-H226 lung
[30] = system: SK-MEL-5 melanoma
[31] = system: RPMI-8226 leukemia
[32] = system: OVCAR-8 ovarian
[33] = system: UACC-257 melanoma
[34] = system: SF-268 CNS
[35] = system: U251 CNS
[36] = system: SW-620 colon
[37] = system: TK-10 renal
[38] = system: NCI-H460 lung
[39] = system: PC-3 prostate
[40] = system: MDA-MB-231 breast
[41] = system: OVCAR-5 ovarian
[42] = system: HCC-2998 colon
[43] = system: BT-549 breast
[44] = system: EKVX NSCLC
[45] = system: RXF 393 renal
[46] = system: UACC-62 melanoma
[47] = system: A549 NSCLC
[48] = system: LOX IMVI melanoma
[49] = system: KM12 colon
[50] = system: IGROV1 ovarian
[51] = system: DU-145 prostate
[52] = system: SNB-19 CNS
[53] = system: SF-539 CNS
[54] = system: SF-295 CNS
[55] = system: 786-0 renal
[56] = system: CAKI-1 renal
[57] = system: CCRF-CEM leukemia
[58] = system: K-562 leukemia

SMILES: COc1ccc2c(c1)[C@]1(C[C@H]1c1ccc3c(/C=C/c4ccc(CN5C[C@@H](C)O[C@@H](C)C5)cc4)n[nH]c3c1)C(=O)N2
- GI50 [1]: 15.1 µM
- TGI [1]: > 100 µM
- GI50 [2]: < 0.0209 µM
- TGI [2]: 15.1 µM
- GI50 [3]: 4.84 µM
- TGI [3]: 49.6 µM
- GI50 [4]: 2.34 µM
- TGI [4]: 30.6 µM
- GI50 [5]: 3.34 µM
- TGI [5]: > 100 µM
- GI50 [6]: 1.59 µM
- TGI [6]: > 75.4 µM
- GI50 [7]: 6.2 µM
- TGI [7]: 38.1 µM
- GI50 [8]: 8.81 µM
- TGI [8]: > 100 µM
- GI50 [9]: 6.4 µM
- TGI [9]: > 100 µM
- GI50 [10]: 3.75 µM
- TGI [10]: 21.8 µM
- GI50 [11]: 5.34 µM
- TGI [11]: 39.1 µM
- GI50 [12]: 2.86 µM
- TGI [12]: > 100 µM
- GI50 [13]: 2.87 µM
- TGI [13]: 31.8 µM
- GI50 [14]: 2.23 µM
- TGI [14]: > 100 µM
- GI50 [15]: 2.71 µM
- TGI [15]: 24.9 µM
- GI50 [16]: 2.83 µM
- TGI [16]: 11.6 µM
- GI50 [17]: 0.269 µM
- TGI [17]: 6.61 µM
- GI50 [18]: 5.15 µM
- TGI [18]: > 56.7 µM
- GI50 [19]: 2.22 µM
- TGI [19]: 8.63 µM
- GI50 [20]: 1.77 µM
- TGI [20]: 12.1 µM
- GI50 [21]: 3.25 µM
- TGI [21]: 20.6 µM
- GI50 [22]: 8.28 µM
- TGI [22]: > 100 µM
- GI50 [23]: 2.84 µM
- TGI [23]: > 100 µM
- GI50 [24]: 4.19 µM
- TGI [24]: 18.5 µM
- GI50 [25]: 2.69 µM
- TGI [25]: 13.7 µM
- GI50 [26]: 2.65 µM
- TGI [26]: > 100 µM
- GI50 [27]: 1.84 µM
- TGI [27]: 13.4 µM
- GI50 [28]: 2.68 µM
- TGI [28]: > 86.9 µM
- GI50 [29]: 14.5 µM
- TGI [29]: > 100 µM
- GI50 [30]: 1.77 µM
- TGI [30]: 3.87 µM
- GI50 [31]: 1.59 µM
- TGI [31]: > 100 µM
- GI50 [32]: 5.06 µM
- TGI [32]: 51.1 µM
- GI50 [33]: 6.8 µM
- TGI [33]: > 60.5 µM
- GI50 [34]: 4.63 µM
- TGI [34]: > 90.6 µM
- GI50 [35]: 5.14 µM
- TGI [35]: 45.6 µM
- GI50 [36]: 2.46 µM
- TGI [36]: > 61 µM
- GI50 [37]: 11.8 µM
- TGI [37]: > 61.3 µM
- GI50 [38]: 1.6 µM
- TGI [38]: 12.1 µM
- GI50 [39]: 2.54 µM
- TGI [39]: > 100 µM
- GI50 [40]: 4.35 µM
- TGI [40]: > 54 µM
- GI50 [41]: 8.26 µM
- TGI [41]: > 100 µM
- GI50 [42]: 4.18 µM
- TGI [42]: > 59.7 µM
- GI50 [43]: 1.75 µM
- TGI [43]: 5.29 µM
- GI50 [44]: 6.01 µM
- TGI [44]: > 100 µM
- GI50 [45]: 1.85 µM
- TGI [45]: 4.4 µM
- GI50 [46]: 9.79 µM
- TGI [46]: 39.6 µM
- GI50 [47]: 2.72 µM
- TGI [47]: > 55.4 µM
- GI50 [48]: 1.96 µM
- TGI [48]: 10.4 µM
- GI50 [49]: 0.0143 µM
- TGI [49]: > 73.6 µM
- GI50 [50]: 9.69 µM
- TGI [50]: > 100 µM
- GI50 [51]: 4.91 µM
- TGI [51]: 45.6 µM
- GI50 [52]: 9.74 µM
- TGI [52]: > 100 µM
- GI50 [53]: 1.63 µM
- TGI [53]: 4.63 µM
- GI50 [54]: 1.79 µM
- TGI [54]: > 100 µM
- GI50 [55]: 2.3 µM
- TGI [55]: 8.58 µM

SMILES: C/C(=N/NC(=O)c1ccncc1)c1ccc(NC(=O)C(=O)Nn2c(=S)[nH]c3ccccc3c2=O)cc1
- TGI [1]: > 100 µM
- TGI [2]: > 100 µM
- TGI [3]: > 100 µM
- TGI [4]: > 100 µM
- TGI [5]: > 100 µM
- TGI [6]: > 100 µM
- TGI [7]: > 100 µM
- TGI [8]: > 100 µM
- TGI [9]: > 100 µM
- TGI [10]: > 100 µM
- TGI [11]: > 100 µM
- TGI [12]: > 100 µM
- TGI [13]: > 100 µM
- TGI [14]: > 100 µM
- TGI [15]: > 100 µM
- TGI [16]: > 100 µM
- TGI [17]: > 100 µM
- TGI [56]: > 100 µM
- TGI [18]: > 100 µM
- TGI [19]: > 100 µM
- TGI [20]: > 100 µM
- TGI [21]: > 100 µM
- TGI [22]: > 100 µM
- TGI [23]: > 100 µM
- TGI [24]: > 100 µM
- TGI [26]: > 100 µM
- TGI [27]: > 100 µM
- TGI [28]: > 100 µM
- TGI [29]: > 100 µM
- TGI [30]: > 100 µM
- TGI [31]: > 100 µM
- TGI [32]: > 100 µM
- TGI [33]: > 100 µM
- TGI [34]: > 100 µM
- TGI [35]: > 100 µM
- TGI [36]: > 100 µM
- TGI [37]: > 100 µM
- TGI [38]: > 100 µM
- TGI [39]: > 100 µM
- TGI [40]: > 100 µM
- TGI [41]: > 100 µM
- TGI [42]: > 100 µM
- TGI [43]: > 100 µM
- TGI [57]: > 100 µM
- TGI [44]: > 100 µM
- TGI [45]: > 100 µM
- TGI [46]: > 100 µM
- TGI [47]: > 100 µM
- TGI [48]: > 100 µM
- TGI [49]: > 100 µM
- TGI [50]: > 100 µM
- TGI [51]: > 100 µM
- TGI [52]: > 100 µM
- TGI [53]: > 100 µM
- TGI [54]: > 100 µM
- TGI [55]: > 100 µM

SMILES: Clc1cc(OCc2nn3c(Cc4ccccc4)nnc3s2)ccc1OCc1nn2c(Cc3ccccc3)nnc2s1
- TGI [1]: > 100 µM
- TGI [2]: > 100 µM
- TGI [3]: > 100 µM
- TGI [4]: 79.6 µM
- TGI [5]: > 100 µM
- TGI [6]: > 100 µM
- TGI [7]: > 100 µM
- TGI [8]: > 100 µM
- TGI [9]: > 100 µM
- TGI [10]: > 100 µM
- TGI [11]: 46.5 µM
- TGI [12]: > 100 µM
- TGI [13]: > 100 µM
- TGI [14]: > 100 µM
- TGI [15]: > 100 µM
- TGI [16]: > 100 µM
- TGI [17]: > 100 µM
- TGI [56]: 99.6 µM
- TGI [18]: > 100 µM
- TGI [19]: > 100 µM
- TGI [20]: > 100 µM
- TGI [21]: > 100 µM
- TGI [22]: > 100 µM
- TGI [23]: > 100 µM
- TGI [24]: > 100 µM
- TGI [25]: > 100 µM
- TGI [26]: 59.3 µM
- TGI [27]: 39 µM
- TGI [28]: 79.4 µM
- TGI [29]: > 100 µM
- TGI [30]: > 100 µM
- TGI [31]: > 100 µM
- TGI [32]: 62.9 µM
- TGI [33]: > 100 µM
- TGI [34]: > 100 µM
- TGI [35]: 51.5 µM
- TGI [36]: > 100 µM
- TGI [58]: > 100 µM
- TGI [37]: 72.1 µM
- TGI [38]: > 100 µM
- TGI [39]: > 100 µM
- TGI [40]: 66.8 µM
- TGI [41]: > 100 µM
- TGI [42]: > 100 µM
- TGI [43]: > 100 µM
- TGI [44]: 66.2 µM
- TGI [45]: > 100 µM
- TGI [46]: > 100 µM
- TGI [47]: > 100 µM
- TGI [48]: > 100 µM
- TGI [49]: > 100 µM
- TGI [50]: > 100 µM
- TGI [51]: > 100 µM
- TGI [52]: 82.7 µM
- TGI [53]: > 100 µM
- TGI [54]: 63.9 µM
- TGI [55]: 56.8 µM
